From ChEMBL document CHEMBL5046259, “Cannabinoids Block Cellular Entry of SARS-CoV-2 and the Emerging Variants” (J Nat Prod, 2022)
Values after ≈ are worked out from the molar mass of the structure shown. Active and inactive are the calls of the source. The calls are words filed in the database; no cut-off is given here.

Tests used:
[1] = system: SARS-CoV-2; assay: Antiviral activity against SARS-CoV-2 isolate USA-WA1/2020 strain infected in African green monkey Vero E6 cells assessed as inhibition of viral entry incubated for 1 hr prior to infection and measured after 48 hrs by Focus forming assay; type: functional, organism-based; conditions: Severe acute respiratory syndrome coronavirus 2, USA-WA1/2020, Vero C1008
[2] = system: HEK-293T; assay: Cytotoxicity against human HEK293T cells overexpressing ACE2 by resazurin assay; type: toxicity, cell-based
[3] = system: Vero C1008; assay: Cytotoxicity against African green monkey Vero E6 cells by resazurin assay; type: toxicity, cell-based; conditions: chlorocebus sabaeus
[4] = system: SARS-CoV-2; assay: Antiviral activity against SARS-CoV-2 infected in African green monkey Vero E6 cells assessed as inhibition of viral entry at 25 ug/ml measured after 24 hrs post infection by fluorescence microscopy; type: functional, organism-based; conditions: Severe acute respiratory syndrome coronavirus 2, dose 25.0 µg/ml
[5] = system: Caco-2; assay: Cytotoxicity against human Caco-2 cells by resazurin assay; type: toxicity, cell-based

Row | Structure (SMILES) | IC50 [1] | Activity [2] | Activity [3] | Activity [4] | Activity [5]
1 | C=C(C)[C@@H]1CCC(C)=C[C@H]1c1c(O)cc(CCCCC)c(C(=O)O)c1O [CANNABIDIOLIC ACID] | 24 µg/mL (≈ 66.9 µM) | Non-Toxic | Non-Toxic | Active | Non-Toxic
2 | CCCCCc1cc(O)c(C/C=C(\C)CCC=C(C)C)c(O)c1C(=O)O [CANNABIGEROLIC ACID] | 37 µg/mL (≈ 103 µM) | Non-Toxic | Non-Toxic | Active | Non-Toxic
